The text below walks through data of patent publication US20250049791A1, “Synthesis of MEK7 Inhibitors and methods of Use Thereof” (Northwestern University, priority 2023, published 2025).

Where two headings read alike, the source gives them in different places.

The experiment concerns the target T1, recombinant active full-length human MEK7 (Homo sapiens, UniProt O14733).
T1 construct: recombinant active full-length human MEK7 (Carna Biosciences); purchased Carna Biosciences
T1 sequence (O14733 1-419): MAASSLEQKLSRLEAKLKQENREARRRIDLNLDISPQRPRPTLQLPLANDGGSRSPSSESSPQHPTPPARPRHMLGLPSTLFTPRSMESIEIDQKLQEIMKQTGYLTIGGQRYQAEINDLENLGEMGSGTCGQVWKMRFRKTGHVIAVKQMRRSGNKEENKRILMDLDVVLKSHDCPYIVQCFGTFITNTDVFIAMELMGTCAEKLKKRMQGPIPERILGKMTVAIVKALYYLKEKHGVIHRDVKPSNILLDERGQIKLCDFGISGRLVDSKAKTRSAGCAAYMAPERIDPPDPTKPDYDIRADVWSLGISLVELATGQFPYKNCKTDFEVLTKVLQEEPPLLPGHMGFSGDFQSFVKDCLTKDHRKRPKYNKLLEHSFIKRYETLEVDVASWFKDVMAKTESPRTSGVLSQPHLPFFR
Put plainly: ADP-Glo kinase activity assay, MEK7 with JNK1 substrate. The experiment is classed as biochemical. As to conditions: for in vitro activity against MAP2K7, in words: ADP-Glo assay, comparison within the series. The procedure:
Procedure for a 5 μL Kinase reaction using the ADP-Glo Kinase Assay Kit from Promega. Staurosporine was used as the positive control, and DMSO (vehicle) was employed as the negative control. Activity of recombinant active full-length human MEK7 (Carna Biosciences) was measured with recombinant full-length human substrate JNK1 (MAPK8). Using a Mantis, a mixture of MEK7 and JNK1 was dispensed into a 384-well low volume white Proxiplate. For each well, 4 ng of MEK7 and 600 ng of JNK1 in kinase buffer (CST) were used, accounting for 1 μL of this mixture per well. Inhibitor was prepared in a DMSO solution (40 mM). A dose-response dilution was performed in a 384-well Echo transfer plate. Using an Echo Access, 10 nL of each solution was dispensed into the same 384-well low volume white Proxiplate as above. This mixture was allowed to incubate for 30 minutes at room temperature. Using a Mantis, 1 uL of an 8 μM ATP solution was added to each well, and the plate was allowed to incubate for another 1 hour at room temperature. Using the Mantis again, 4 μL of ADP Glo Reagent was dispensed into each well, and the plate was allowed to incubate for 45 min at room temperature. Finally, 9 μL of Kinase Detection Reagent was added manually to each well, and the plate was allowed to incubate for 45 minutes at room temperature. Luminescence was read on a Synergy Neo2 Plate Reader with filter cubes 3 and 114. Integration time was set to 0.20 seconds, gain set to 160, and read height set at 6 mm. All experiments were performed in triplicate on the plate, and at least in one separate technical duplicate was performed.
MEK4 selectivity was performed in the same manner with activated MEK4 (Carna Biosciences). Here, p-38α was employed as the kinase substrate in lieu of JNK1 due to the availability of reagents. […] To probe the ATP-competitive nature of 25, this compound was subjected to a similar assay forgoing the 30 minute incubation time described above (STAR Protocols 2021, 2, 100717). The results are tabulated below in compound characterization. Potency determined by duplicate of triplicates corresponded to a IC50 value, which is in line with the ratio difference observed among other covalent inhibitors (for examples, see Cell Chem. Biol. 2020, 27, 1285).
(In general: ADP-Glo turns the ADP formed in a reaction into a luminescent signal.)

Setting [1] is: 30 min preincubation, overall value of two experiments, read-out: MEK7 IC50.
[2] abbreviates: MEK7 IC50, first experiment (IC50±SEM, n=3), 30 min preincubation, first value in brackets.
Setting [3] is: MEK7 IC50, second experiment (IC50±SEM, n=3), 30 min preincubation, second value in brackets.
The mark [4] stands for this setting: 30 min preincubation, read-out: MEK7 IC50.
Where [5] appears, read: 30 min preincubation, first value in brackets.
[6] abbreviates: read-out: MEK7 IC50, second experiment (IC50±SEM, n=3), 30 min preincubation, second value in brackets.

The IC50 is the concentration needed to halve the response being measured. In the case of `CC=CC(=O)Nc1cccc(Oc2cc(NC)ncn2)c1` (mixture of isomers) [Compound 10, (E/Z)—N-(3-((6-(methylamino)pyrimidin-4-yl)oxy)phenyl) but-2-enamide], the “in vitro activity against MAP2K7, in words” value (“in vitro activity” below) is “less potent”. The IC50 under setting [1] is over 80000 nM.
With `CNc1cc(Oc2ccc(NC(=O)CCl)cc2)ncn1` [Compound 6, 2-chloro-N-(4-((6-(methylamino)pyrimidin-4-yl)oxy)phenyl)acetamide], the “in vitro activity” value was “less active than compound 8”. Besides, under setting [1], the IC50 turned out to be 1800 nM. The IC50 under setting [2] was 1500 ± 210 nM. The IC50 under setting [3] amounted to 2100 ± 1100 nM.
Regarding `C=CC(=O)Nc1ccc(Oc2cc(NC)ncn2)cc1` [Compound 7, N-(4-((6-(methylamino)pyrimidin-4-yl)oxy)phenyl) acrylamide], the “in vitro activity” value was “less active than compound 8”. Also, under setting [1], the IC50 came to 8800 nM. The IC50 under setting [4] is 60 nM. Besides, the IC50 under setting [2] was found to be 7700 ± 1300 nM. The IC50 under setting [3] came to 9900 ± 1200 nM.
Take `CNc1cc(Oc2cccc(NC(=O)C(C)(C)CCl)c2)ncn1` [Compound 11, 3-chloro-2,2-dimethyl-N-(3-((6-(methylamino)pyrimidin-4-yl)oxy)phenyl) propenamide]: the “in vitro activity” value is given as “less potent”.
With `CNc1cc(Oc2cccc(NC(=O)CF)c2)ncn1` [Compound 12, 2-fluoro-N-(3-((6-(methylamino)pyrimidin-4-yl)oxy)phenyl)acetamide], the “in vitro activity” value is on record as “attenuated activity”. Also, under setting [5], the IC50 stood at 7700 ± 20000 nM. In addition, the IC50 under setting [1] was 7800 nM. The IC50 under setting [6] is 7800 ± 5000 nM.
As to `CNc1cc(Oc2cccc(NC(=O)COC)c2)ncn1` [Compound 13, 2-methoxy-N-(3-((6-(methylamino)pyrimidin-4-yl)oxy)phenyl)acetamide], the “in vitro activity” value was “attenuated activity”.
On to `O=C(CCl)Nc1cccc(Oc2cc(N3CCOCC3)ncn2)c1` [Compound 14, 2-chloro-N-(3-((6-morpholinopyrimidin-4-yl)oxy)phenyl)acetamide], for which the MEK7 IC50, first experiment (IC50±SEM, n=3) under setting [5] stood at 1300 ± 3400 nM.
Take `O=C(CCl)Nc1cccc(Oc2cc(NCCc3c[nH]c4ccccc34)ncn2)c1` [Compound 15, N-(3-((6-((2-(1H-indol-3-yl)ethyl)amino)pyrimidin-4-yl)oxy)phenyl)-2-chloroacetamide]: the “in vitro activity” value is on record as “greatest potency”. For the same compound, under setting [1], the IC50 was found to be 260 nM. Moreover, the IC50 under setting [2] worked out at 300 ± 92 nM. The IC50 under setting [3] is 210 ± 180 nM.
Take `O=C(CCl)Nc1cccc(Oc2cc(NC3CCCC3)ncn2)c1` [Compound 16, 2-chloro-N-(3-((6-(cyclopentylamino)pyrimidin-4-yl)oxy)phenyl)acetamide]: the IC50 reads like this: under setting [1], 270 nM; under setting [2], 350 ± 150 nM; under setting [3], 190 ± 190 nM.
In the same order, the values of `O=C(CCl)Nc1cccc(Oc2cc(NCCc3ccccc3)ncn2)c1` [Compound 18] are 1200 nM, 730 ± 220 nM and 1700 nM.
Regarding `O=C(CCl)Nc1cccc(Oc2cc(NCCc3ccc(Cl)cc3)ncn2)c1` [Compound 19, 2-chloro-N-(3-((6-((4-chlorophenethyl)amino)pyrimidin-4-yl)oxy)phenyl)acetamide], the “in vitro activity” value is listed as “greatest potency”. In addition, under setting [1], the IC50 was determined as 66 nM. The IC50 under setting [2] was found to be 53 nM. Moreover, the IC50 under setting [3] was determined as 78 ± 91 nM.
`O=C(CCl)Nc1cccc(Oc2cc(NCCc3ccc(F)cc3)ncn2)c1` [Compound 20, 2-chloro-N-(3-((6-((4-fluorophenethyl)amino)pyrimidin-4-yl)oxy)phenyl)acetamide]: the IC50 is 1200 nM under setting [1], 710 ± 400 nM under setting [2] and 1600 ± 1800 nM under setting [3].
In the same order, the values of `COc1ccc(CCNc2cc(Oc3cccc(NC(=O)CCl)c3)ncn2)cc1` [Compound 21, 2-chloro-N-(3-((6-((4-methoxyphenethyl)amino)pyrimidin-4-yl)oxy)phenyl)acetamide] are 930 nM, 1200 ± 330 nM and 660 ± 310 nM.
The like results for `COc1ccc(CCNc2cc(Oc3cccc(NC(=O)CCl)c3)ncn2)cc1OC` [Compound 22, 2-chloro-N-(3-((6-((3,4-dimethoxyphenethyl)amino)pyrimidin-4-yl)oxy)phenyl)acetamide] were, in that order, 1700 nM, 1900 ± 550 nM and 1400 ± 970 nM.
Regarding `O=C(CCl)Nc1cccc(Oc2cc(NCCc3ccc4c(c3)OCO4)ncn2)c1` [Compound 23, N-(3-((6-((2-(benzo[d][1,3]dioxol-5-yl)ethyl)amino)pyrimidin-4-yl)oxy)phenyl)-2-chloroacetamide], the IC50 amounted to 1100 nM under setting [1], 1400 ± 810 nM under setting [2] and 830 ± 680 nM under setting [3].
With `CN(Cc1ccccc1)c1cc(Oc2cccc(NC(=O)CCl)c2)ncn1` [Compound 24, N-(3-((6-(benzyl(methyl)amino)pyrimidin-4-yl)oxy)phenyl)-2-chloroacetamide], the “in vitro activity” value is “ten-fold attenuation”. Moreover, under setting [1], the IC50 came out at 110 nM. In addition, the IC50 under setting [2] was found to be 140 ± 87 nM. Moreover, the IC50 under setting [3] was determined as 87 ± 42 nM.
With `O=C(CCl)Nc1cccc(Oc2cc(NCc3cc(F)cc(F)c3)ncn2)c1` [Compound 26, 2-chloro-N-(3-((6-((3,5-difluorobenzyl)amino)pyrimidin-4-yl)oxy)phenyl)acetamide], the IC50 was 74 nM under setting [1] and 110 nM under setting [2].
For the compound `O=C(CCl)Nc1cccc(Oc2cc(NCc3ccc(F)cc3F)ncn2)c1` [Compound 27, 2-chloro-N-(3-((6-((2,4-difluorobenzyl)amino)pyrimidin-4-yl)oxy)phenyl)acetamide], the IC50 runs as follows: under setting [1], 360 nM; under setting [2], 140 nM; under setting [3], 580 ± 200 nM.
As to `O=C(CCl)Nc1cccc(Oc2cc(NCc3c(F)ccc(F)c3F)ncn2)c1` [Compound 28, 2-chloro-N-(3-((6-((2,3,6-trifluorobenzyl)amino)pyrimidin-4-yl)oxy)phenyl)acetamide], the IC50 under setting [1] came to 110 nM, the IC50 under setting [2] was 880 ± 29 nM and the IC50 under setting [3] was found to be 140 ± 44 nM.
Consider `O=C(CCl)Nc1cccc(Oc2cc(NCc3ccc(F)c(F)c3)ncn2)c1` [Compound 29, 2-chloro-N-(3-((6-((3,4-difluorobenzyl)amino)pyrimidin-4-yl)oxy)phenyl)acetamide], for which the IC50 is, setting by setting: under setting [1], 42 nM; under setting [4], 42 nM; (read-out: MEK7 IC50, first experiment (IC50±SEM, n=3), 30 min preincubation, first value in brackets) 42 ± 36 nM; under setting [6], 42 ± 58 nM.
For the compound `O=C(CCl)Nc1cccc(Oc2cc(NCc3ccccc3C(F)(F)F)ncn2)c1` [Compound 30, 2-chloro-N-(3-((6-((2-(trifluoromethyl)benzyl)amino)pyrimidin-4-yl)oxy)phenyl)acetamide], the “in vitro activity” value is “towards the micromolar range”. The IC50 under setting [1] was 1200 nM. Moreover, the IC50 under setting [2] was found to be 1100 ± 480 nM. Further, the IC50 under setting [3] came to 1300 ± 550 nM.
In the case of `O=C(CCl)Nc1cccc(Oc2cc(NCc3ccc(F)c(C(F)(F)F)c3)ncn2)c1` [Compound 31, 2-chloro-N-(3-((6-((4-fluoro-3-(trifluoromethyl)benzyl)amino)pyrimidin-4-yl)oxy)phenyl)acetamide], the IC50 under setting [1] is 3000 nM, the IC50 under setting [2] is 4200 ± 2500 nM and the IC50 under setting [3] was 1800 ± 1200 nM.
For `COc1ccccc1CNc1cc(Oc2cccc(NC(=O)CCl)c2)ncn1` [Compound 32, 2-chloro-N-(3-((6-((2-methoxybenzyl)amino)pyrimidin-4-yl)oxy)phenyl)acetamide], the “in vitro activity” value is given as “towards the micromolar range”. Under setting [1], the IC50 was 800 nM. The IC50 under setting [2] was found to be 590 ± 150 nM. The IC50 under setting [3] came to 1000 ± 220 nM.
